Test system: MV-4-11 cells
Experiment: Gene expression microarray analysis (Affymetrix PrimeView) and GSEA
Assay type: cell-based, human
Design: RFU PODN (11730768_x_at) / Fold change /veh PODN (11730768_x_at) / RFU LINC00158 (11744669_a_at) / Fold change /veh LINC00158 (11744669_a_at) / RFU DUSP10 (11751237_a_at) / Fold change /veh DUSP10 (11751237_a_at) / RFU ID3 (11757404_x_at) / Fold change /veh ID3 (11757404_x_at) / RFU PLEKHG5 (11737974_s_at) / Fold change /veh PLEKHG5 (11737974_s_at) / RFU LRRC4B (11730491_at) / Fold change /veh LRRC4B (11730491_at) / RFU GIMAP4 (11747438_a_at) / Fold change /veh GIMAP4 (11747438_a_at) / RFU KRT8 (11758183_x_at) / Fold change /veh KRT8 (11758183_x_at) / RFU CNN1 (11734310_a_at) / Fold change /veh CNN1 (11734310_a_at) / RFU VPS37D (11726825_at) / Fold change /veh VPS37D (11726825_at) / RFU C10orf10 (11716522_x_at) / Fold change /veh C10orf10 (11716522_x_at) / RFU KIR2DL2 /// KIR2DL4 /// KIR2DL5A /// KIR2DL5B /// KIR2DS1 /// KIR2DS2 /// KIR2DS3 /// KIR2DS4 /// KIR3DL3 /// KIR3DL3 /// KIR3DS1 (11738374_at) / Fold change /veh KIR2DL2 /// KIR2DL4 /// KIR2DL5A /// KIR2DL5B /// KIR2DS1 /// KIR2DS2 /// KIR2DS3 /// KIR2DS4 /// KIR3DL3 /// KIR3DL3 /// KIR3DS1 (11738374_at) / RFU C1QL1 (11718748_at) / Fold change /veh C1QL1 (11718748_at) / RFU TMPRSS4 (11747572_a_at) / Fold change /veh TMPRSS4 (11747572_a_at) / RFU HAMP (11756126_x_at) / Fold change /veh HAMP (11756126_x_at) / RFU RNFT2 (11725882_a_at) / Fold change /veh RNFT2 (11725882_a_at) / RFU NR4A2 (11747474_a_at) / Fold change /veh NR4A2 (11747474_a_at) / RFU ABCC12 (11746883_a_at) / Fold change /veh ABCC12 (11746883_a_at) / RFU TMEM136 (11760407_x_at) / Fold change /veh TMEM136 (11760407_x_at) / RFU CLDN22 /// WWC2 (11732394_at) / Fold change /veh CLDN22 /// WWC2 (11732394_at) / RFU HLA-DPB1 (11760878_x_at) / Fold change /veh HLA-DPB1 (11760878_x_at) / RFU SPINT1 (11716480_a_at) / Fold change /veh SPINT1 (11716480_a_at) / RFU GAP43 (11754022_s_at) / Fold change /veh GAP43 (11754022_s_at) / RFU A4GNT (11735810_at) / Fold change /veh A4GNT (11735810_at) / RFU PRB3 (11715151_x_at) / Fold change /veh PRB3 (11715151_x_at) / RFU TUBB4B (11761932_at) / Fold change /veh TUBB4B (11761932_at) / RFU CAPN14 (11732068_a_at) / Fold change /veh CAPN14 (11732068_a_at) / RFU TMCC2 (11721928_a_at) / Fold change /veh TMCC2 (11721928_a_at) / RFU IRGQ (11745062_a_at) / Fold change /veh IRGQ (11745062_a_at) / RFU FAM174B (11720279_a_at) / Fold change /veh FAM174B (11720279_a_at) / RFU TMPRSS4 (11748680_a_at) / Fold change /veh TMPRSS4 (11748680_a_at) / RFU FAM212B (11763350_a_at) / Fold change /veh FAM212B (11763350_a_at) / RFU PLEKHG5 (11743358_a_at) / Fold change /veh PLEKHG5 (11743358_a_at) / RFU ZSCAN30 (11745921_a_at) / Fold change /veh ZSCAN30 (11745921_a_at) / RFU CMKLR1 (11741424_a_at) / Fold change /veh CMKLR1 (11741424_a_at) / RFU LOC101060620 /// MAPK8IP1 (11723275_at) / Fold change /veh LOC101060620 /// MAPK8IP1 (11723275_at) / RFU SPTSSB (11747773_x_at) / Fold change /veh SPTSSB (11747773_x_at) / RFU PRSS12 (11739890_at) / Fold change /veh PRSS12 (11739890_at) / RFU BIN1 (11741810_x_at) / Fold change /veh BIN1 (11741810_x_at) / RFU WNT11 (11732464_a_at) / Fold change /veh WNT11 (11732464_a_at) / RFU C10orf10 (11716521_a_at) / Fold change /veh C10orf10 (11716521_a_at) / RFU C5orf56 (11738089_at) / Fold change /veh C5orf56 (11738089_at) / RFU CYB561 (11721691_x_at) / Fold change /veh CYB561 (11721691_x_at) / RFU ANKRD19P (11752326_a_at) / Fold change /veh ANKRD19P (11752326_a_at) / RFU OR2T12 /// OR2T33 /// OR2T8 (11738714_s_at) / Fold change /veh OR2T12 /// OR2T33 /// OR2T8 (11738714_s_at) / RFU VCAN (11748164_a_at) / Fold change /veh VCAN (11748164_a_at) / RFU JSRP1 (11732532_at) / Fold change /veh JSRP1 (11732532_at) / RFU KRTAP10-11 (11738290_x_at) / Fold change /veh KRTAP10-11 (11738290_x_at) / RFU MYO3A (11730013_a_at) / Fold change /veh MYO3A (11730013_a_at) / RFU EBF3 (11725865_a_at) / Fold change /veh EBF3 (11725865_a_at) / RFU CAMK2N1 (11719241_x_at) / Fold change /veh CAMK2N1 (11719241_x_at) / RFU C5orf56 (11738088_a_at) / Fold change /veh C5orf56 (11738088_a_at) / RFU OLFML3 (11715873_a_at) / Fold change /veh OLFML3 (11715873_a_at) / RFU LOC100653217 /// NTM (11731650_a_at) / Fold change /veh LOC100653217 /// NTM (11731650_a_at) / RFU MAPK11 (11762145_a_at) / Fold change /veh MAPK11 (11762145_a_at) / RFU FIZ1 (11724087_x_at) / Fold change /veh FIZ1 (11724087_x_at) / RFU OASL (11726364_x_at) / Fold change /veh OASL (11726364_x_at) / RFU SOX15 (11748057_x_at) / Fold change /veh SOX15 (11748057_x_at) / RFU CD79A (11719716_a_at) / Fold change /veh CD79A (11719716_a_at) / RFU HIST1H1D (11736915_at) / Fold change /veh HIST1H1D (11736915_at) / RFU CASKIN2 (11723855_a_at) / Fold change /veh CASKIN2 (11723855_a_at) / RFU LOC730098 (11760151_x_at) / Fold change /veh LOC730098 (11760151_x_at) / RFU OR4N2 (11742367_at) / Fold change /veh OR4N2 (11742367_at) / RFU PRRT2 (11749266_a_at) / Fold change /veh PRRT2 (11749266_a_at) / RFU SNX32 (11753110_a_at) / Fold change /veh SNX32 (11753110_a_at) / RFU CDHR5 (11726645_a_at) / Fold change /veh CDHR5 (11726645_a_at) / RFU RCAN1 (11760418_a_at) / Fold change /veh RCAN1 (11760418_a_at) / RFU FAM167A (11723789_a_at) / Fold change /veh FAM167A (11723789_a_at) / RFU FAM26E (11764081_at) / Fold change /veh FAM26E (11764081_at) / RFU ISYNA1 (11749810_s_at) / Fold change /veh ISYNA1 (11749810_s_at) / RFU ACY1 (11761880_at) / Fold change /veh ACY1 (11761880_at) / RFU 11764098_at / Fold change /veh 11764098_at / RFU SAMD14 (11745864_x_at) / Fold change /veh SAMD14 (11745864_x_at) / RFU NPB (11741838_a_at) / Fold change /veh NPB (11741838_a_at) / RFU TMPRSS6 (11731388_a_at) / Fold change /veh TMPRSS6 (11731388_a_at) / RFU KRTAP10-2 (11738614_at) / Fold change /veh KRTAP10-2 (11738614_at) / RFU ARHGAP8 /// PRR5-ARHGAP8 (11727945_x_at) / Fold change /veh ARHGAP8 /// PRR5-ARHGAP8 (11727945_x_at) / RFU KRTAP5-7 /// NADSYN1 (11734609_at) / Fold change /veh KRTAP5-7 /// NADSYN1 (11734609_at) / RFU RASL12 (11751679_a_at) / Fold change /veh RASL12 (11751679_a_at) / RFU CDKN2B (11736163_a_at) / Fold change /veh CDKN2B (11736163_a_at) / RFU PRF1 (11729649_at) / Fold change /veh PRF1 (11729649_at) / RFU, ZNF638 /// ZNF638-IT1 / Fold change vs veh, ZNF638 /// ZNF638-IT1 / RFU, PANK3 / Fold change vs veh, PANK3 / RFU, SH3YL1 / Fold change vs veh, SH3YL1 / RFU, ZEB2 / Fold change vs veh, ZEB2 / RFU, NRIP1 / Fold change vs veh, NRIP1 / RFU, PTTG1IP / Fold change vs veh, PTTG1IP / RFU, CAPN2 / Fold change vs veh, CAPN2 / RFU, MED14 / Fold change vs veh, MED14 / RFU, SNORA58 / Fold change vs veh, SNORA58 / RFU, C1orf63 / Fold change vs veh, C1orf63 / RFU, LRRFIP1 / Fold change vs veh, LRRFIP1 / RFU, NDUFAF7 / Fold change vs veh, NDUFAF7 / RFU, SLC12A2 / Fold change vs veh, SLC12A2 / RFU, IBTK / Fold change vs veh, IBTK / RFU, ESF1 / Fold change vs veh, ESF1 / Fold change vs veh, TMEM50B / RFU, TAOK1 / Fold change vs veh, TAOK1 / RFU, ACBD3 / Fold change vs veh, ACBD3 / RFU, TMA16 / Fold change vs veh, TMA16 / RFU, RWDD3 / Fold change vs veh, RWDD3 / RFU, BCAT1 / Fold change vs veh, BCAT1 / RFU, EDEM3 / Fold change vs veh, EDEM3 / RFU, TMEM33 / Fold change vs veh, TMEM33 / RFU, WDR75 / Fold change vs veh, WDR75 / RFU, AHCTF1 / Fold change vs veh, AHCTF1 / RFU, TFRC / Fold change vs veh, TFRC / RFU, ZDHHC17 / Fold change vs veh, ZDHHC17 / RFU, NOM1 / Fold change vs veh, NOM1 / RFU, ARL8B / Fold change vs veh, ARL8B / RFU, ZBTB11 / Fold change vs veh, ZBTB11 / RFU, TAMM41 / Fold change vs veh, TAMM41 / RFU, KIAA1704 /// LOC100996395 / Fold change vs veh, KIAA1704 /// LOC100996395 / RFU, ING1 / Fold change vs veh, ING1 / RFU, TRMT61B / Fold change vs veh, TRMT61B / RFU, FUBP3 / Fold change vs veh, FUBP3 / RFU, TP53 / Fold change vs veh, TP53 / RFU, TNKS2 / Fold change vs veh, TNKS2 / RFU, ZFP14 / Fold change vs veh, ZFP14 / RFU, ACTR2 / Fold change vs veh, ACTR2 / RFU, PPP3R1 / Fold change vs veh, PPP3R1 / RFU, PIK3R1 / Fold change vs veh, PIK3R1 / RFU, HNRNPA1 / Fold change vs veh, HNRNPA1 / RFU, RNF170 / Fold change vs veh, RNF170 / RFU, ZNF28 / Fold change vs veh, ZNF28 / RFU, RNGTT / Fold change vs veh, RNGTT / RFU, OGT / Fold change vs veh, OGT / RFU, BRD1 / Fold change vs veh, BRD1 / RFU, MARS / Fold change vs veh, MARS / RFU, ZNF655 / Fold change vs veh, ZNF655 / RFU, FAHD1 / Fold change vs veh, FAHD1 / RFU, BDP1 / Fold change vs veh, BDP1 / RFU, LRRCC1 / Fold change vs veh, LRRCC1 / RFU, ARID1A / Fold change vs veh, ARID1A / RFU, ZNF146 / Fold change vs veh, ZNF146 / RFU, ZNF330 / Fold change vs veh, ZNF330 / RFU, GPN3 / Fold change vs veh, GPN3 / RFU, C9orf123 / Fold change vs veh, C9orf123 / RFU, N4BP2L2 / Fold change vs veh, N4BP2L2 / RFU, ARFIP1 / Fold change vs veh, ARFIP1 / RFU, FAM179B / Fold change vs veh, FAM179B / RFU, BCL10 / Fold change vs veh, BCL10 / RFU, UHRF1BP1L / Fold change vs veh, UHRF1BP1L / RFU, BET1 / Fold change vs veh, BET1 / RFU, CNOT2 / Fold change vs veh, CNOT2 / RFU, ZNF268 / Fold change vs veh, ZNF268 / Fold change vs veh, ZNF507 / RFU, DGCR2 / Fold change vs veh, DGCR2 / RFU, WDSUB1 / Fold change vs veh, WDSUB1 / Fold change vs veh, HSP90B1 /// MIR3652 / RFU, ADSS / Fold change vs veh, ADSS / RFU, GK / Fold change vs veh, GK / RFU, ZNF148 / Fold change vs veh, ZNF148 / RFU, TAF9 / Fold change vs veh, TAF9 / RFU, SLC1A5 / Fold change vs veh, SLC1A5 / RFU, SLMO2 / Fold change vs veh, SLMO2 / RFU, ABCC4 / Fold change vs veh, ABCC4 / RFU, LOC101060439 /// RAP1B / Fold change vs veh, LOC101060439 /// RAP1B / RFU, RFX7 / Fold change vs veh, RFX7 / RFU, GTPBP10 / Fold change vs veh, GTPBP10 / RFU, CNEP1R1 / Fold change vs veh, CNEP1R1 / RFU, BIVM-ERCC5 /// ERCC5 / Fold change vs veh, BIVM-ERCC5 /// ERCC5 / RFU, ILF3 / Fold change vs veh, ILF3 / RFU 11762660_at / Fold change /veh 11762660_at / RFU VCAN (11757783_s_at) / Fold change /veh VCAN (11757783_s_at) / RFU DDX43 (11728927_at) / Fold change /veh DDX43 (11728927_at) / RFU KRT8 (11758188_x_at) / Fold change /veh KRT8 (11758188_x_at) / RFU NKD1 (11759106_at) / Fold change /veh NKD1 (11759106_at) / RFU SRD5A1 (11742802_a_at) / Fold change /veh SRD5A1 (11742802_a_at) / RFU TPSAB1 /// TPSB2 (11721975_s_at) / Fold change /veh TPSAB1 /// TPSB2 (11721975_s_at) / RFU GSTM3 (11746129_a_at) / Fold change /veh GSTM3 (11746129_a_at) / RFU IL23R (11737362_x_at) / Fold change /veh IL23R (11737362_x_at) / RFU TMEM51 (11727254_a_at) / Fold change /veh TMEM51 (11727254_a_at) / RFU PIWIL2 (11732686_x_at) / Fold change /veh PIWIL2 (11732686_x_at) / RFU ORM1 (11744905_x_at) / Fold change /veh ORM1 (11744905_x_at) / RFU CCDC152 (11743942_at) / Fold change /veh CCDC152 (11743942_at) / RFU ECM1 (11717891_a_at) / Fold change /veh ECM1 (11717891_a_at) / RFU IL23R (11748794_a_at) / Fold change /veh IL23R (11748794_a_at) / RFU TNFAIP8L3 (11732012_x_at) / Fold change /veh TNFAIP8L3 (11732012_x_at) / RFU MBOAT4 (11741988_at) / Fold change /veh MBOAT4 (11741988_at) / RFU 11764193_at / Fold change /veh 11764193_at / RFU TMEM53 (11763286_at) / Fold change /veh TMEM53 (11763286_at) / RFU MAGEB2 (11727129_at) / Fold change /veh MAGEB2 (11727129_at) / RFU TMEM200A (11744735_a_at) / Fold change /veh TMEM200A (11744735_a_at) / RFU CCDC152 (11751479_a_at) / Fold change /veh CCDC152 (11751479_a_at) / RFU FAM211A (11726209_a_at) / Fold change /veh FAM211A (11726209_a_at) / RFU RGS16 (11746705_a_at) / Fold change /veh RGS16 (11746705_a_at) / RFU VCAN (11755009_s_at) / Fold change /veh VCAN (11755009_s_at) / RFU RHOB (11743442_s_at) / Fold change /veh RHOB (11743442_s_at) / RFU RGS16 (11720943_a_at) / Fold change /veh RGS16 (11720943_a_at) / RFU RGS16 (11720944_at) / Fold change /veh RGS16 (11720944_at) / RFU, VPS4B / Fold change vs veh, VPS4B / RFU, CREB1 / Fold change vs veh, CREB1 / RFU, DNAJC13 / Fold change vs veh, DNAJC13 / RFU, GNAQ / Fold change vs veh, GNAQ / RFU, CDK5R1 / Fold change vs veh, CDK5R1 / RFU, ZRANB3 / Fold change vs veh, ZRANB3 / RFU, CUL4A / Fold change vs veh, CUL4A / RFU, CCNY / Fold change vs veh, CCNY / RFU, UFL1 / Fold change vs veh, UFL1 / RFU, COG3 / Fold change vs veh, COG3 / RFU, DIAPH2 / Fold change vs veh, DIAPH2 / RFU, SKA2 / Fold change vs veh, SKA2 / RFU, AFF3 / Fold change vs veh, AFF3 / RFU, LMF1 / Fold change vs veh, LMF1 / RFU, IPO11 / Fold change vs veh, IPO11 / RFU, DFFB / Fold change vs veh, DFFB / RFU, FOXP1 / Fold change vs veh, FOXP1 / RFU, CARD8 / Fold change vs veh, CARD8 / RFU, STRN3 / Fold change vs veh, STRN3 / RFU, ADK / Fold change vs veh, ADK / RFU, RASSF2 / Fold change vs veh, RASSF2 / RFU, WIPF1 / Fold change vs veh, WIPF1 / RFU, LARP1B / Fold change vs veh, LARP1B / RFU, RASA1 / Fold change vs veh, RASA1 / RFU, RB1 / Fold change vs veh, RB1 / RFU, PPFIA1 / Fold change vs veh, PPFIA1 / RFU, MAT2A / Fold change vs veh, MAT2A / RFU, CCT5 / Fold change vs veh, CCT5 / RFU, WDR92 / Fold change vs veh, WDR92 / RFU, CUX1 / Fold change vs veh, CUX1 / RFU, TTC7A / Fold change vs veh, TTC7A / RFU, TMEM135 / Fold change vs veh, TMEM135 / RFU, DEPTOR / Fold change vs veh, DEPTOR / RFU, CPM / Fold change vs veh, CPM / RFU, DNAJB6 / Fold change vs veh, DNAJB6 / RFU, CACNA2D3 / Fold change vs veh, CACNA2D3 / RFU, DTX4 / Fold change vs veh, DTX4 / RFU, TFCP2 / Fold change vs veh, TFCP2 / RFU, GMCL1 /// GMCL1P1 / Fold change vs veh, GMCL1 /// GMCL1P1 / RFU, AEBP2 / Fold change vs veh, AEBP2 / RFU, SNHG1 /// SNORD22 /// SNORD25 /// SNORD26 /// SNORD27 /// SNORD28 /// SNORD29 /// SNORD31 / Fold change vs veh, SNHG1 /// SNORD22 /// SNORD25 /// SNORD26 /// SNORD27 /// SNORD28 /// SNORD29 /// SNORD31 / Fold change (Aza/veh), C12orf56 (ProbeSet 11735607_a_at) / Fold change (ACY-1035/veh), C12orf56 (ProbeSet 11735607_a_at) / Fold change (Aza/veh), FGFR1OP (ProbeSet 11751329_s_at) / Fold change (ACY-1035/veh), FGFR1OP (ProbeSet 11751329_s_at) / Fold change (Aza/veh), VPS36 (ProbeSet 11739960_a_at) / Fold change (ACY-1035/veh), VPS36 (ProbeSet 11739960_a_at) / RFU SYPL1 (11715823_x_at) / Fold change /veh SYPL1 (11715823_x_at) / RFU IGFBP7 (11715501_s_at) / Fold change /veh IGFBP7 (11715501_s_at) / RFU REEP3 (11722064_at) / Fold change /veh REEP3 (11722064_at) / RFU IGLL1 (11728026_x_at) / Fold change /veh IGLL1 (11728026_x_at): dose or concentration left out as unconfirmed
Settings: gene C12orf56; Azacitidine vs DMSO; LIST F

`Nc1ncn([C@@H]2O[C@H](CO)[C@@H](O)[C@H]2O)c(=O)n1` [azacitidine] was tested, and the “Fold change (Aza/veh), C12orf56 (ProbeSet 11735607_a_at)” value was 1.01.

— paper PMC5218480 (PLoS ONE, 2017)
